From ChEMBL document CHEMBL1153819, “Use of acetylcholine binding protein in the search for novel alpha7 nicotinic receptor ligands. In silico docking, pharmacological screening, and X-ray analysis” (J Med Chem, 2009)
The source made the active and inactive calls. The calls are words filed in the database; no cut-off is given here.

Columns and labels:
[1] = target: Acetylcholine-binding protein (Lymnaea stagnalis, UniProt P58154); assay: Displacement of [125I]alpha-bungarotoxin from Lymnaea stagnalis His-tagged AchBP
[2] = target: T1, Neuronal acetylcholine receptor; alpha4/beta2 (Homo sapiens, UniProt P17787+P43681); assay: Activity at human alpha4beta2 nAChR expressed in Xenopus oocytes assessed as inhibition of acetylcholine-evoked current; type: cell-based, Oocyte; details: for Activity: Oocyte
[3] = target: T2, Neuronal acetylcholine receptor subunit alpha-7 (Homo sapiens, UniProt P36544); assay: Binding affinity to human alpha7 nAChR allosteric site assessed as increase in bungarotoxin Kd at 100 uM by [125I]alpha-bungarotoxin saturation binding experiment
[4] = Displacement of [3H]epibatidine from Aplysia californica AchBP
[5] = target: T2, Neuronal acetylcholine receptor subunit alpha-7; assay: Activity at human alpha7 nAChR expressed in Xenopus oocytes assessed as inhibition of acetylcholine-evoked current; type: cell-based, Oocyte; details: for Activity: Oocyte
[6] = target: T2, Neuronal acetylcholine receptor subunit alpha-7; assay: Displacement of [125I]alpha-bungarotoxin from human alpha7 nAChR expressed in human SH-SY5Y cells; type: cell-based
[7] = target: T3, 5-hydroxytryptamine receptor 3A (Homo sapiens) (UniProt P46098); assay: Inhibition of human 5HT3A receptor
T3 sequence (whole entry): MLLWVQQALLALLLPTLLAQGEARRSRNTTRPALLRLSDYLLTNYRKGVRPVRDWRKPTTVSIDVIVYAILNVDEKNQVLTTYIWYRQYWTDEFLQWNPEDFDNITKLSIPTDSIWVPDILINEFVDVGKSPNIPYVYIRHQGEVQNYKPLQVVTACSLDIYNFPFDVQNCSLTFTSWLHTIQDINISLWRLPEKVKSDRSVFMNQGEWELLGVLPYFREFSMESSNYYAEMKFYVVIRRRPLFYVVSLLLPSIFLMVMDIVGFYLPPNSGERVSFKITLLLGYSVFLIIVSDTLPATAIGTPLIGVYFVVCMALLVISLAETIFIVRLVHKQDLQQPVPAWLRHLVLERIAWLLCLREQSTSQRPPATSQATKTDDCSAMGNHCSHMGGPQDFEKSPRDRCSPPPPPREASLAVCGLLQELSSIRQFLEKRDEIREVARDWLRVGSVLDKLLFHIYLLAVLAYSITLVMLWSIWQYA

[8] = target: T1, Neuronal acetylcholine receptor; alpha4/beta2; assay: Displacement of [3H]epibatidine from human alpha4beta2 nAChR expressed in HEK293t cells; type: cell-based; details: HEK-293T
[9] = target: T2, Neuronal acetylcholine receptor subunit alpha-7; assay: Binding affinity to human alpha7 nAChR allosteric site assessed as decrease in bungarotoxin Bmax at 100 uM by [125I]alpha-bungarotoxin saturation binding experiment

Chain of Acetylcholine-binding protein (P58154 whole entry): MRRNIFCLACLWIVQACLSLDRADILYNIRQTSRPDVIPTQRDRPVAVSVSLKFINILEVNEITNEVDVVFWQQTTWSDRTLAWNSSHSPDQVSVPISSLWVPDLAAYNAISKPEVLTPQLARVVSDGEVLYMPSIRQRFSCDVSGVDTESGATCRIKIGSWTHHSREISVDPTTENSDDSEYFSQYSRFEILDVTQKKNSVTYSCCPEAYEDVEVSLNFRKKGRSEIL
T2 sequence (P36544 whole entry): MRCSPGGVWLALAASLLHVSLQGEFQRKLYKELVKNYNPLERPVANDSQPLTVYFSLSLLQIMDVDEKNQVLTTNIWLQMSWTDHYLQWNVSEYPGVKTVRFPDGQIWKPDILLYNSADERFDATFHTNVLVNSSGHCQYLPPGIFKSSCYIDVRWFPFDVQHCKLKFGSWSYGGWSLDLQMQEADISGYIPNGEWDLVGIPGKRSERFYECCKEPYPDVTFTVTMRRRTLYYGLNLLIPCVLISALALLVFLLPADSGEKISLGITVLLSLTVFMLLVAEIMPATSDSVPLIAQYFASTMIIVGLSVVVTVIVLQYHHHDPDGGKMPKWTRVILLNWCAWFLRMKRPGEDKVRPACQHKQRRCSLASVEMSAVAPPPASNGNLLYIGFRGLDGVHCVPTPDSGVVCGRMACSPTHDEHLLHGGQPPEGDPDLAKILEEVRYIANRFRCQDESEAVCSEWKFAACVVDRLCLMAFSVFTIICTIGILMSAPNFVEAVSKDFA
T1 sequence (P17787 whole entry): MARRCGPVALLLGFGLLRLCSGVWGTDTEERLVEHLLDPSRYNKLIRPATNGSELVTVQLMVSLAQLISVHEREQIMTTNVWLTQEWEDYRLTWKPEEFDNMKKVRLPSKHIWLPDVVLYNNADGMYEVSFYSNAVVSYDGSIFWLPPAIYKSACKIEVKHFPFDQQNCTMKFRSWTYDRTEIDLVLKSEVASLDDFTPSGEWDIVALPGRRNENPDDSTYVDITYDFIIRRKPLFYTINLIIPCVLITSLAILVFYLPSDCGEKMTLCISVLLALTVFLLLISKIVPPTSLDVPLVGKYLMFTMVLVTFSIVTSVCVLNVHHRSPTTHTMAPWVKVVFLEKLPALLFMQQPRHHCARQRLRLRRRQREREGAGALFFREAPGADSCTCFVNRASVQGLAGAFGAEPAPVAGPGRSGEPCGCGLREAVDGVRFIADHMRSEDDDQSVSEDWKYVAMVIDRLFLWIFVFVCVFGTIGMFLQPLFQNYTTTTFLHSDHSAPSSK
T1 sequence (P43681 whole entry): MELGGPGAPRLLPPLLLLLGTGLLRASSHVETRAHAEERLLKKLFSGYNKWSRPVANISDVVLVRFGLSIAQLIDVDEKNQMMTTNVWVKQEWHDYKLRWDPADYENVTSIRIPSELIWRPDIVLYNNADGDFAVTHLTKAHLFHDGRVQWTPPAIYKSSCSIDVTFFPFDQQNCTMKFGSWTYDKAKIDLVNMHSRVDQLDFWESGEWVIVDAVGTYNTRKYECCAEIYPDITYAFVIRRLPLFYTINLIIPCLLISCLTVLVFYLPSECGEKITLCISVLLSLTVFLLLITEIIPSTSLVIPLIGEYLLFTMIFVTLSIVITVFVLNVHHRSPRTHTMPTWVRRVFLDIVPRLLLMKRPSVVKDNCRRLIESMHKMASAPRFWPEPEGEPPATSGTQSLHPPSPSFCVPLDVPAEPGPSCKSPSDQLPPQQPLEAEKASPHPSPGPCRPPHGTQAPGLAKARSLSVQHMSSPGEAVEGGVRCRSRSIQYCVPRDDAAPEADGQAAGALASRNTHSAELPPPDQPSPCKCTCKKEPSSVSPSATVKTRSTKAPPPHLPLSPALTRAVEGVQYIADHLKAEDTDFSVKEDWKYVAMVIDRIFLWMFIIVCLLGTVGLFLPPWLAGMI

`CN1[C@@H]2CC[C@H]1C[C@@H](OC1c3ccccc3CCc3ccccc31)C2` [DEPTROPINE] gave a Ki [1] of 398 nM.
For `c1ccc(CN2C3CCC2CC(OC2c4ccccc4CCc4ccccc42)C3)cc1` (centres undefined), the IC50 [2] was 460 nM, the Activity [2] was “Dose-dependent effect” and the Activity [3] was “Active”. The pKi [4] was 6, the IC50 [5] was 1730 nM and the Activity [5] was “Dose-dependent effect”. For the same compound, the Ki [6] was 12600 nM, the Activity [7] was “Active” and the Activity [8] was “inactive”. The Activity [9] was “Active” and the Ki [1] was 100 nM.
With `CN1C2CCC1CC(OC(=O)COC1c3ccccc3CCc3ccccc31)C2` (centres undefined) the Ki [1] was 100 nM.
In the case of `C[N+]1(C)C2CCC1CC(OC1c3ccccc3CCc3ccccc31)C2` (centres undefined), the IC50 [2] is reported as 210 nM, the Activity [2] is reported as “Dose-dependent effect” and the IC50 [5] is reported as 880 nM. For the same compound, the Activity [5] was “Dose-dependent effect”, the Ki [6] was 2000 nM and the Activity [7] was “Active”. For the same compound, the Activity [8] was “inactive”, the Activity [9] was “Active” and the Ki [1] was 63.1 nM.
Work on `Cc1cccc2c1CCc1ccccc1C2OC1CC2CCC(C1)N2C` (centres undefined) yielded a Ki [1] of 316 nM.
In the case of `CCN1C2CCC1CC(OC1c3ccccc3CCc3ccccc31)C2` (centres undefined), the Ki [1] is reported as 126 nM.
`c1ccc2c(c1)CCc1ccccc1C2OC1CCNCC1` showed a Ki [1] of 3160 nM.
Compound `CN1CCC[C@H]1c1cccnc1` [NICOTINE] has a pKi [4] of 6.4.
For `CC(=O)OCC[N+](C)(C)C` [ACETYLCHOLINE], the Ki [1] was 3160 nM.
`N=C(CCN1C2CCC1CC(OC1c3ccccc3CCc3ccccc31)C2)NO` (centres undefined) showed a Ki [1] of 1260 nM.
`CN1CCC(OC2c3ccccc3CCc3ccccc32)CC1` [HEPZIDINE] showed a Ki [1] of 1580 nM.
In the case of `Cc1ccc2c(c1)C(OC1CC3CCC(C1)N3C)c1ccccc1CC2` (centres undefined), the Ki [1] is reported as 126 nM.
`c1ccc2c(c1)CCc1ccccc1C2OC1CC2CCC(C1)N2` (centres undefined) showed a Ki [1] of 316 nM.
In the case of `NC(N)=NCCN1C2CCC1CC(OC1c3ccccc3CCc3ccccc31)C2` (centres undefined), the Ki [1] is reported as 501 nM.
With `CCCN1CCC(OC2c3ccccc3CCc3ccccc32)CC1` the Ki [1] was 631 nM.
`N#CCCN1C2CCC1CC(OC1c3ccccc3CCc3ccccc31)C2` (centres undefined) showed a Ki [1] of 1000 nM.
